Results as given in BigSolDB 2.1.

Details: 298.15 K

CCC(C)n1ncn(-c2ccc(N3CCN(c4ccc(OC[C@H]5CO[C@](Cn6cncn6)(c6ccc(Cl)cc6Cl)O5)cc4)CC3)cc2)c1=O (mixture of isomers)
solubility (mole fraction) (in DMAc): 0.0118 | solubility (mole fraction) (in DMF): 0.0107 | solubility (mole fraction) (in DMSO): 0.00175 | solubility (mole fraction) (in NMP): 0.022 | solubility (mole fraction) (in THF): 0.00212 | solubility (mole fraction) (in acetone): 0.000637 | solubility (mole fraction) (in acetonitrile): 7.95e-05 | solubility (mole fraction) (in chloroform): 0.0504 | solubility (mole fraction) (in dichloromethane): 0.0327 | solubility (mole fraction) (in ethanol): 1.91e-05 | solubility (mole fraction) (in isopropanol): 2.14e-05 | solubility (mole fraction) (in methanol): 3.79e-05 | solubility (mole fraction) (in n-butanol): 2.3e-05 | solubility (mole fraction) (in n-propanol): 2.05e-05 | solubility (mole fraction) (in transcutol): 0.00073 | solubility (mole fraction) (in water): 2.43e-07
